Data from the supplement of paper PMC13386468.

Columns and labels:
Test in all cases: IC50 for competition of protein binding to Kinobeads
Conditions in all cases: assay detail: Kinobeads competition in P. falciparum blood-stage lysate
[1] = target: UniProt Q8IB72
[2] = target: UniProt C6KTB3
[3] = target: UniProt Q8IJP3
[4] = target: UniProt O97266
[5] = target: UniProt Q8I320
[6] = target: UniProt Q9TY99
[7] = target: UniProt Q8IIC0
[8] = target: UniProt C0H4U4
[9] = target: UniProt C6KSV4
[10] = target: UniProt Q8ILQ3
[11] = target: UniProt C0H4P4
[12] = target: UniProt C0H5J5
[13] = target: UniProt Q8I5S4
[14] = target: UniProt Q8IJM0
[15] = target: UniProt C0H4U0
[16] = target: UniProt Q8IIV8
[17] = target: UniProt Q8II60
[18] = target: UniProt Q8I0V3
[19] = target: UniProt Q8IDN9
[20] = target: UniProt Q8IDY6
[21] = target: UniProt Q8II00
[22] = target: UniProt Q8IAW5
[23] = target: UniProt Q7KQL5
UniProt Q7KQL5, sequence (Q7KQL5 whole entry): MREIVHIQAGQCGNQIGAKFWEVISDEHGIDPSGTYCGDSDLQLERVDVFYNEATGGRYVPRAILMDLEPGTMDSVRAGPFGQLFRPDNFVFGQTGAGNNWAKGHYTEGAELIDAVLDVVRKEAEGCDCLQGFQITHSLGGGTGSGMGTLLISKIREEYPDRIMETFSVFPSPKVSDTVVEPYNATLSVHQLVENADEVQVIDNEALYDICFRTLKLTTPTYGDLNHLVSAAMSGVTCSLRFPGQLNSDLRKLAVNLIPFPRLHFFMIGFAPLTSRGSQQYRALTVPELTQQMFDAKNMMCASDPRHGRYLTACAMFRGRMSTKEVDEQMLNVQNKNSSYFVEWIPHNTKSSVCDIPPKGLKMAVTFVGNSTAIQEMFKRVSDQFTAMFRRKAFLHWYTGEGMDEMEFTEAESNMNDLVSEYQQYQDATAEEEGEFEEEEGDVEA

[24] = target: UniProt Q8IHT3
[25] = target: UniProt C6KSW5
[26] = target: UniProt Q8IBQ9
[27] = target: UniProt Q8IIF0
[28] = target: UniProt O96203
[29] = target: UniProt Q8I4Q5
[30] = target: UniProt C6KSV3
[31] = target: UniProt Q8IL13
[32] = target: UniProt Q8IJI4
[33] = target: UniProt Q8I6T3
[34] = target: UniProt Q8I274
[35] = target: UniProt O97285
[36] = target: UniProt Q7KQK0
[37] = target: UniProt Q8IM01
[38] = target: UniProt C6KT56
[39] = target: UniProt Q8IKL5
[40] = target: UniProt Q8IC06
[41] = target: UniProt Q8ILI2
[42] = target: UniProt Q8I4Z2
[43] = target: UniProt Q8ILP6
[44] = target: UniProt Q8IJV7
[45] = target: UniProt Q8IHT4
[46] = target: UniProt Q8IE82
[47] = target: UniProt Q8IB73
[48] = target: UniProt Q8I2V4
[49] = target: UniProt Q7K6A9
[50] = target: UniProt Q8IIK8
[51] = target: UniProt Q8I3T9
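Also: native unpurified kinases from lysate captured on beads bearing immobilized kinase inhibitors, with bead-bound kinases quantified by mass spectrometry across compound doses.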

## O=c1[nH]c2ccc(Cl)cc2c(NC2CN3CCC2CC3)c1-c1nc2ccccc2[nH]1 (stereo unspecified) [CHIR-124]
[1]
  IC50: > 20 µM
[2]
  IC50: > 20 µM
[3]
  IC50: > 20 µM
[4]
  IC50: > 20 µM
[5]
  IC50: > 20 µM
[6]
  IC50: > 20 µM
[7]
  IC50: > 20 µM
[8]
  IC50: > 20 µM
[9]
  IC50: > 20 µM
[10]
  IC50: > 20 µM
[11]
  IC50: > 20 µM
[12]
  IC50: > 20 µM
[13]
  IC50: > 20 µM
[14]
  IC50: > 20 µM
[15]
  IC50: > 20 µM
[16]
  IC50: > 20 µM
[17]
  IC50: > 20 µM
[18]
  IC50: > 20 µM
[19]
  IC50: > 20 µM
[20]
  IC50: > 20 µM
[21]
  IC50: > 20 µM
[22]
  IC50: > 20 µM
[23]
  IC50: > 20 µM
[24]
  IC50: > 20 µM
[25]
  IC50: > 20 µM
[26]
  IC50: > 20 µM
[27]
  IC50: > 20 µM
[28]
  IC50: > 20 µM
[29]
  IC50: > 20 µM
[30]
  IC50: > 20 µM
[31]
  IC50: > 20 µM
[32]
  IC50: > 20 µM
[33]
  IC50: > 20 µM
[34]
  IC50: > 20 µM
[35]
  IC50: > 20 µM
[36]
  IC50: 0.85 µM
[37]
  IC50: > 20 µM
[38]
  IC50: > 20 µM
[39]
  IC50: > 20 µM
[40]
  IC50: > 20 µM
[41]
  IC50: > 20 µM
[42]
  IC50: > 20 µM
[43]
  IC50: > 20 µM
[44]
  IC50: > 20 µM
[45]
  IC50: > 20 µM
[46]
  IC50: > 20 µM
[47]
  IC50: > 20 µM
[48]
  IC50: > 20 µM
[49]
  IC50: > 20 µM
[50]
  IC50: > 20 µM
[51]
  IC50: > 20 µM
